The values that follow come from ChEMBL document CHEMBL1149794, “3D-QSAR and docking studies of aminopyridine carboxamide inhibitors of c-Jun N-terminal kinase-1” (Eur J Med Chem, 2008).

Mitogen-activated protein kinase 8, sequence (P45983 whole entry): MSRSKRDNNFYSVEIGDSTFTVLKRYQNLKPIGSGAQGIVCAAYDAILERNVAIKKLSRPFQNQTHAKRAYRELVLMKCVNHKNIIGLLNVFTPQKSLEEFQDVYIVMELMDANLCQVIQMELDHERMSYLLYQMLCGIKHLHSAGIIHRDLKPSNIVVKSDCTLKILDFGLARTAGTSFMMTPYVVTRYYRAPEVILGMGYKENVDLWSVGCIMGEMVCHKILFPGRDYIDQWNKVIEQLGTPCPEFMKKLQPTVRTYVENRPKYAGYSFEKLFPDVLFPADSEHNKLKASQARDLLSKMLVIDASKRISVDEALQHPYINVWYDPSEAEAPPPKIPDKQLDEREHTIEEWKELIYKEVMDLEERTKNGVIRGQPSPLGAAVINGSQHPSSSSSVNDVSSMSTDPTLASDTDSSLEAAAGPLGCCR

This test addresses Mitogen-activated protein kinase 8 (Homo sapiens, UniProt P45983). In words: Inhibition of JNK1.
`C[C@@H](CO)Nc1nc(C(=O)NCc2ccc(S(C)(=O)=O)cc2)cc(N)c1C#N` gave an IC50 of 180 nM.
In the case of `C[C@@H](CO)Oc1nc(C(=O)NCc2ccc(S(C)(=O)=O)cc2)cc(N)c1C#N`, the 50% inhibitory concentration (IC50) is 22 nM.
`CS(=O)(=O)c1ccc(CNC(=O)c2cc(N)c(C#N)c(OCCC(=O)O)n2)cc1` had a concentration for half-maximal inhibition (IC50) of 1640 nM.
On to `CC(C)[C@H](CO)Nc1nc(C(=O)NCc2ccc(S(C)(=O)=O)cc2)cc(N)c1C#N`, for which the IC50 was 1500 nM.
